This is an account of results in US12581252B2, “Substituted pyrrolo[3,4-b]pyridines as PI3K-α inhibitors” (Relay Therapeutics, Inc., priority 2020, dated 2026).

Some results are limits rather than exact numbers.

For the assay, the target named is H1047R PIK3CA enzyme (Homo sapiens, UniProt P42336, H1047R). Briefly: ADP-Glo Biochemical PIK3CA Kinase Assay.
Sequence of H1047R PIK3CA enzyme (P42336 whole entry H1047R): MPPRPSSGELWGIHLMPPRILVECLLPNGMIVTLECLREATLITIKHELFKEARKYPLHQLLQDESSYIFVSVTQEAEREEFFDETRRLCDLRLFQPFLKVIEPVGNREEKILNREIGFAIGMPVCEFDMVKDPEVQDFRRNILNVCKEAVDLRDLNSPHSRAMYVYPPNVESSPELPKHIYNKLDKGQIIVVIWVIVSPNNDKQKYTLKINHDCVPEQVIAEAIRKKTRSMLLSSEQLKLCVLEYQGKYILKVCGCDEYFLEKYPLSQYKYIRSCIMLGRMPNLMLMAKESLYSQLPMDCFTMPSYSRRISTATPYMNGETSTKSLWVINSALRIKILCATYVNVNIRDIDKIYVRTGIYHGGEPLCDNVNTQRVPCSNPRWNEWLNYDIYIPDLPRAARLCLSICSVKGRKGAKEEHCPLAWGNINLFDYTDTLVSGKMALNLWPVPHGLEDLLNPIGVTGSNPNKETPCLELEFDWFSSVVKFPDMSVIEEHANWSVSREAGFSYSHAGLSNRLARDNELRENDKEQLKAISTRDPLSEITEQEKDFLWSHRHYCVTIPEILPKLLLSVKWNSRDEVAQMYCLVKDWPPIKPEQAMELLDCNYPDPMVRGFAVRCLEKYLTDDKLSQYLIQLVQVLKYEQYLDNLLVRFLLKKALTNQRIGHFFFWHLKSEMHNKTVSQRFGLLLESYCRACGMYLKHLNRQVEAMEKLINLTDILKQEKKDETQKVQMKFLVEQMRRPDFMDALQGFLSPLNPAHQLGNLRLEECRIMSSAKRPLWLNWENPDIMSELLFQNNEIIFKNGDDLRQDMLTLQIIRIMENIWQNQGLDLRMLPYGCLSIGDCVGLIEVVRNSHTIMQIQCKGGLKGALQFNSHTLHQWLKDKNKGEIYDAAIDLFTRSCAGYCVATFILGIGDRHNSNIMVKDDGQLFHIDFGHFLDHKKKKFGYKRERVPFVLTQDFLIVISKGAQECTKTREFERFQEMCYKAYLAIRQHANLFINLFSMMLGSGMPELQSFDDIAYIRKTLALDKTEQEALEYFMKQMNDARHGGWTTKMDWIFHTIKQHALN
Sequence of H1047R PIK3CA enzyme (P27986 whole entry partner): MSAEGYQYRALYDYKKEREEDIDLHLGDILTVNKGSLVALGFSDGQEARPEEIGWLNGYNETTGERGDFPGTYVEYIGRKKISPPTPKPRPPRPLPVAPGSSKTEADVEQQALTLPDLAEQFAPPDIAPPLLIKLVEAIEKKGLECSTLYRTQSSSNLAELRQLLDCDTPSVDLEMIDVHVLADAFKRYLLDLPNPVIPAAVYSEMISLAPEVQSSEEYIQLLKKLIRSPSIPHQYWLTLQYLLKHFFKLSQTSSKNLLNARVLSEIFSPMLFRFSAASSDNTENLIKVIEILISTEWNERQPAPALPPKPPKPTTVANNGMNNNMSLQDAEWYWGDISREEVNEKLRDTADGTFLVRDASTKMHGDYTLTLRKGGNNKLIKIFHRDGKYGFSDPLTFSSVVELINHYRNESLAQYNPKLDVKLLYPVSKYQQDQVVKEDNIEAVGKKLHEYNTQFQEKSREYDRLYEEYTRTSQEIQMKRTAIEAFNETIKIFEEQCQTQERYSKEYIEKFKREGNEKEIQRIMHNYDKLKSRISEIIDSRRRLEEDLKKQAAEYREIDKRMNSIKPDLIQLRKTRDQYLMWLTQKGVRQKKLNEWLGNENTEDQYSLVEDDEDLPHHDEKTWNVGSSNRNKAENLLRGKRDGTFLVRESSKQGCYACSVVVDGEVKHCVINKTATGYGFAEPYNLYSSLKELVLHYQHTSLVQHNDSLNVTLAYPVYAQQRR
With `CN1CCC(C2NC(=O)c3cccc(NC(=O)c4cc(F)cc(C(F)(F)F)c4)c32)CC1` (stereo not drawn) [Compound I-1815], the IC50 (in general, the concentration that gives 50% inhibition) fell in the range of 10000 to 100000 nM.

On to `O=C1N[C@@H](c2cc(F)ccc2Cl)c2c(NC(=O)N3C[C@](O)(C(F)(F)F)c4cc(F)ccc43)ccc(Cl)c21` (single isomer, unassigned) [Compound I-2619], for which the IC50 was in the range of 1000 to 10000 nM.

`NC(=O)COc1ncc(-c2cc(NC(=O)c3cc(F)cc(C(F)(F)F)c3)c3c(c2)C(=O)NC3c2cc(F)ccc2Cl)cn1` (stereo not drawn) [Compound I-1416] gave an IC50 of no more than 100 nM.

For `O=C(Nc1cc(OCC2(CO)COC2)cc2c1C(c1cc(F)ccc1Cl)NC2=O)c1cc(F)cc(C(F)(F)F)c1` (stereo not drawn) [Compound I-1357], the IC50 was no more than 100 nM.

`Cc1ncc(-c2cc(NC(=O)c3cc(F)cc(Cl)c3)c3c(c2)C(=O)NC3c2cc(F)ccc2Cl)cn1` (stereo not drawn) [Compound I-849] had an IC50 of no more than 100 nM.

Molecule `O=C1C[C@@H](c2cc(NC(=O)c3cc(F)cc(C(F)(F)F)c3)c3c(c2)C(=O)N[C@H]3c2cc(F)ccc2Cl)CN1` (single isomer, unassigned) [Compound I-1710] gave a half-inhibitory concentration (IC50) of no more than 100 nM.

`O=C(Nc1cc(O[C@H]2CCCNC2)cc2c1C(c1cc(F)ccc1Cl)NC2=O)c1cc(F)cc(C(F)(F)F)c1` (mixture of isomers) [Compound I-1527]: the IC50 is 100 to 500 nM.

With `Cn1cc(-c2cc(NC(=O)c3cc(F)cc(C(F)(F)F)c3)c3c(c2)C(=O)N[C@H]3c2cc(F)ccc2Cl)c(C#N)n1` [Compound I-1738], the half-inhibitory concentration (IC50) is no more than 100 nM.

Molecule `CC1(F)CN(c2cc(NC(=O)c3cc(F)cc(C(F)(F)F)c3)c3c(n2)C(=O)NC3c2cc(F)ccc2Cl)C1` (stereo not drawn) [Compound I-368] showed an IC50 of 100 to 500 nM.

`O=C1NC(c2cc(F)ccc2Cl)c2c(NC(=O)N3CC[C@H](F)[C@@H](F)C3)cc(Br)cc21` (mixture of isomers) [Compound I-720] yielded an IC50 of 10000 to 100000 nM.

Molecule `NCCc1cc(NC(=O)N2C[C@@H](O)c3cc(F)ccc32)c2c(c1)C(=O)N[C@@H]2c1cc(F)ccc1Cl` (single isomer, unassigned) [Compound I-2444] displayed a concentration for half-maximal inhibition (IC50) of 100 to 500 nM.

`O=C(Nc1cc(Br)cc2c1C(c1cc(F)ccc1Cl)NC2=O)c1cccc(SC(F)F)c1` (stereo not drawn) [Compound I-1386] showed an IC50 of 1000 to 10000 nM.

Take `Nc1cc(NC(=O)N2C[C@H](O)c3ccccc32)c2c(c1)C(=O)N[C@H]2c1cc(F)ccc1Cl` (single isomer, unassigned) [Compound I-2132]: the IC50 was no more than 100 nM.

Molecule `Cn1ncc(C2NC(=O)c3cccc(NC(=O)c4nsc5ccccc45)c32)c1C(F)F` (stereo not drawn) [Compound I-241] registered an IC50 of 10000 to 100000 nM.

With `COc1ccc(Cl)cc1C(=O)Nc1cc(Br)cc2c1C(c1cc(F)ccc1Cl)NC2=O` (stereo not drawn) [Compound I-799], the 50% inhibitory concentration (IC50) was in the range of 1000 to 10000 nM.

For `Nc1ncc(-c2cc(NC(=O)c3cc(F)cc(C(F)(F)F)c3)c3c(c2)C(=O)N[C@H]3c2cc(F)ccc2Cl)cn1` (stereo in doubt) [Compound I-1004], the half-maximal inhibitory concentration (IC50) fell in the range of 1000 to 10000 nM.

`Cc1ccccc1C1NC(=O)c2cccc(NC(=O)c3csc4c(F)cccc34)c21` (stereo not drawn) [Compound I-36]: the IC50 lay in the range of 100 to 500 nM.

`O=C1NC(c2cc(F)ccc2Cl)c2c(NC(=O)C3CCCC(F)(F)C3)cc(-c3ccc4ncnn4c3)cc21` (stereo not drawn) [Compound I-1750] registered an IC50 of 1000 to 10000 nM.

The molecule `O=C(Nc1cc(-c2ccn3ncnc3n2)cc2c1C(c1cc(F)ccc1Cl)NC2=O)c1cc(F)cc(C(F)(F)F)c1` (stereo not drawn) [Compound I-1677] yielded an IC50 of no more than 100 nM.

Molecule `N#Cc1nn(C(F)F)cc1-c1cc(NC(=O)c2cc(F)cc(C(F)(F)F)c2)c2c(c1)C(=O)N[C@H]2c1cc(F)ccc1Cl` [Compound I-1890] came in with a half-inhibitory concentration (IC50) of no more than 100 nM.

Consider `O=C(Nc1ccc(F)cc1C(F)(F)F)Nc1cc(Br)cc2c1C(c1cc(F)ccc1Cl)NC2=O` (stereo not drawn) [Compound I-1050], for which the half-maximal inhibitory concentration (IC50) lay in the range of 100 to 500 nM.

As for `O=C(Nc1ccccc1)c1cc(-c2ccc3ncnn3c2)cc2c1C(c1cc(F)ccc1Cl)NC2=O` (stereo not drawn) [Compound I-1897], the IC50 was 10000 to 100000 nM.

In turn, `NCc1cc(NC(=O)N2C[C@](O)(C(F)F)c3cc(F)ccc32)c2c(c1)C(=O)N[C@H]2c1cc(F)ccc1Cl` (single isomer, unassigned) [Compound I-2697] yielded an IC50 of 1000 to 10000 nM.

For `CNS(=O)(=O)Cc1cc(NC(=O)c2cc(F)cc(C(F)(F)F)c2)c2c(c1)C(=O)N[C@H]2c1cc(F)ccc1Cl` [Compound I-1534], the IC50 is no more than 100 nM.

On to `CC(=O)N1CC(C2NC(=O)c3cccc(NC(=O)c4cc(F)cc(C(F)(F)F)c4)c32)C1` (stereo not drawn) [Compound I-1909], for which the IC50 was 10000 to 100000 nM.

As for `Cc1ccccc1CC1NC(=O)c2cccc(NC(=O)c3cc(F)cc(C(F)(F)F)c3)c21` (stereo not drawn) [Compound I-841], the half-maximal inhibitory concentration (IC50) lay in the range of 1000 to 10000 nM.

`O=C1N[C@H](c2cc(F)ccc2Cl)c2c(NC(=O)C3(c4cc(F)cc(C(F)(F)F)c4)CCCC3)cc(Br)cc21` [Compound I-2070]: the IC50 is 10000 to 100000 nM.

Molecule `O=C1N[C@@H](c2cc(F)ccc2Cl)c2c(NC(=O)N3C[C@@H](CO)[C@H](C(F)(F)F)C3)cccc21` (single isomer, unassigned) [Compound I-2277] displayed an IC50 of 1000 to 10000 nM.

Take `CC(N1C[C@H](O)C[C@H]1C(=O)Nc1cccc2c1C(c1cc(F)ccc1Cl)NC2=O)C(F)(F)F` (mixture of isomers) [Compound I-2407]: the IC50 lay within 10000 to 100000 nM.

For `O=C(CC1CCCCC1)Nc1cc(-c2ccc3ncnn3c2)cc2c1C(c1cc(F)ccc1Cl)NC2=O` (stereo not drawn) [Compound I-1627], the IC50 was 1000 to 10000 nM.

For `O=C(Nc1cccc2c1C(c1cc(Br)ccc1Cl)NC2=O)c1cc(O)cc(C(F)(F)F)c1` (stereo not drawn) [Compound I-414], the half-inhibitory concentration (IC50) fell in the range of 100 to 500 nM.

Molecule `Cc1ncc(-c2cc(NC(=O)c3cc(F)cc(C(F)(F)F)c3)c3c(n2)C(=O)NC3c2cc(F)ccc2Cl)s1` (stereo not drawn) [Compound I-546] came in with an IC50 of no more than 100 nM.

In turn, `O=C1NC(c2cc(F)ccc2Cl)c2c(NC(=O)C3(c4cccc(Cl)c4)CCCC3)cc(Br)cc21` (stereo not drawn) [Compound I-1637] yielded a 50% inhibitory concentration (IC50) of 10000 to 100000 nM.

Turning to `CC(C)(O)COc1cc(NC(=O)c2cc(F)cc(Cl)c2)c2c(c1)C(=O)NC2c1cc(F)ccc1Cl` (stereo not drawn) [Compound I-819], the concentration for half-maximal inhibition (IC50) was no more than 100 nM.

Molecule `O=C1N[C@@H](c2cc(F)ccc2Cl)c2c(NC(=O)N3CC4(CC4)c4cc(F)ccc43)cc(Br)cc21` (stereo in doubt) [Compound I-1509] showed an IC50 of no more than 100 nM.

The molecule `CC(C)(O)c1cc(F)cc(C(=O)Nc2cccc3c2C(c2cc(F)ccc2Cl)NC3=O)c1` (stereo not drawn) [Compound I-627] had an IC50 of 10000 to 100000 nM.

Turning to `O=C(Nc1cc(OC2CCCOC2)cc2c1C(c1cc(F)ccc1Cl)NC2=O)c1cc(F)cc(C(F)(F)F)c1` (racemic) [Compound I-1239], the IC50 is no more than 100 nM.

`O=C1NC(c2cc(F)ccc2Cl)c2c(NC(=O)N3CCC(C4CC4)C3)cccc21` (stereo not drawn) [Compound I-2398] registered a concentration for half-maximal inhibition (IC50) of 10000 to 100000 nM.

`O=C(Nc1cc(C(O)C(F)(F)F)cc2c1C(c1cc(F)ccc1Cl)NC2=O)c1cc(F)cc(C(F)(F)F)c1` (stereo not drawn) [Compound I-270, N-(3-(2-chloro-5-fluorophenyl)-1-oxo-6-(2,2,2-trifluoro-1-hydroxyethyl)isoindolin-4-yl)-3-fluoro-5-(trifluoromethyl)benzamide] had an IC50 of no more than 100 nM.

As for `O=C(Nc1cccc2c1C(c1ccccc1)NC2=O)c1cc(F)cc(C(F)(F)F)c1` (stereo not drawn) [Compound I-1805], the IC50 lay in the range of 1000 to 10000 nM.

`CC(C)(C)C1CCCN1C(=O)Nc1cccc2c1C(c1cc(F)ccc1Cl)NC2=O` (single isomer, unassigned) [Compound I-2433]: the IC50 lay in the range of 1000 to 10000 nM.

The molecule `O=C(Nc1cc(-c2ccnc(C(F)F)c2)cc2c1C(c1cc(F)ccc1Cl)NC2=O)c1cc(F)cc(C(F)(F)F)c1` (stereo not drawn) [Compound I-1933] gave an IC50 of no more than 100 nM.

With `O=C(Nc1cc(C2CCO2)cc2c1C(c1cc(F)ccc1Cl)NC2=O)c1cc(F)cc(C(F)(F)F)c1` (racemic) [Compound I-662], the concentration for half-maximal inhibition (IC50) is 100 to 500 nM.

Consider `CNc1cc(NC(=O)N2C[C@@](O)(C(F)F)c3cc(F)ccc32)c2c(c1)C(=O)N[C@H]2c1cc(F)ccc1Cl` (single isomer, unassigned) [Compound I-2680], for which the IC50 lay in the range of 10000 to 100000 nM.

`Cc1ccccc1[C@@H]1NC(=O)c2cccc(NC(=O)c3nsc4ccccc34)c21` [Compound I-72] showed a half-maximal inhibitory concentration (IC50) of no more than 100 nM.

Molecule `Cn1nccc1C(F)c1cc(NC(=O)c2cc(F)cc(C(F)(F)F)c2)c2c(c1)C(=O)NC2c1cc(F)ccc1Cl` (mixture of isomers) [Compound I-1379] had an IC50 of no more than 100 nM.

For `N#Cc1cc(NC(=O)c2cc(F)cc(C(F)(F)F)c2)c2c(c1)C(=O)NC2c1cc(F)ccc1Cl` (stereo not drawn) [Compound I-490], the IC50 was no more than 100 nM.

With `CC([C@@H]1C[C@@H](O)CN1C(=O)Nc1cccc2c1C(c1cc(F)ccc1Cl)NC2=O)C(F)(F)F` (single isomer, unassigned) [Compound I-2286], the IC50 was in the range of 500 to 1000 nM.

On to `O=C(Nc1cc(C#Cc2ccncc2)cc2c1C(c1cc(F)ccc1Cl)NC2=O)c1cc(F)cc(C(F)(F)F)c1` (stereo not drawn) [Compound I-1224], for which the half-inhibitory concentration (IC50) is no more than 100 nM.

Take `O=C(Nc1cc(-c2ccc3ncccc3c2)cc2c1C(c1cc(F)ccc1Cl)NC2=O)c1cc(F)cc(C(F)(F)F)c1` (stereo not drawn) [Compound I-737]: the half-maximal inhibitory concentration (IC50) is no more than 100 nM.

Molecule `O=C1N[C@@H](c2cc(F)ccc2Cl)c2c(NC(=O)N3CCC[C@](O)(C(F)(F)F)C3)cccc21` (single isomer, unassigned) [Compound I-2115] yielded an IC50 of 10000 to 100000 nM.

Turning to `C[C@@H](C#N)Cn1cc(-c2cc(NC(=O)N3C[C@H](O)c4cc(F)ccc43)c3c(c2)C(=O)N[C@H]3c2cc(F)ccc2Cl)cn1` (single isomer, unassigned) [Compound I-2499], the half-maximal inhibitory concentration (IC50) lay in the range of 1000 to 10000 nM.

In turn, `O=C1NC(c2ccccc2Cl)c2c(NC(=O)c3csc4ccccc34)ccnc21` (stereo not drawn) [Compound I-9] came in with a half-maximal inhibitory concentration (IC50) of 100 to 500 nM.

Molecule `O=C1NC(c2cc(F)ccc2Cl)c2c(Nc3nnc4n3CCCC4)cc(-c3ccc4ncnn4c3)cc21` (stereo not drawn) [Compound I-2059] yielded a half-inhibitory concentration (IC50) of 10000 to 100000 nM.

Molecule `O=C(Nc1cc(-c2ccc(=O)n(C(F)F)c2)cc2c1C(c1cc(F)ccc1Cl)NC2=O)c1cc(F)cc(C(F)(F)F)c1` (stereo not drawn) [Compound I-1768] came in with a half-maximal inhibitory concentration (IC50) of no more than 100 nM.

Regarding `O=C(Nc1cccc2c(=O)[nH]n(-c3cccc(Cl)c3)c12)c1cc(F)cc(C(F)(F)F)c1` [Compound I-950], the IC50 fell in the range of 1000 to 10000 nM.

For `O=C(Nc1cc(-c2cnn(-c3ncc(F)cn3)c2)cc2c1C(c1cc(F)ccc1Cl)NC2=O)c1cc(F)cc(C(F)(F)F)c1` (stereo not drawn) [Compound I-1616], the IC50 was no more than 100 nM.
